Assay results reported in patent EP4745135A1 (Gluetacs Therapeutics (Shanghai) Co., Ltd., priority 2023, dated 2025).

Columns and labels:
[1] = target: T1, CK1α (Homo sapiens, UniProt P48729+Q96SW2); assay: Western blot, degradation of substrate protein in hPBMCs; assay type: cell-based; details: Western blot, 24 hours of compound treatment, compounds tested at 50 nM and 500 nM (concentration for the table not stated)
T1 construct: effects of the compounds of the present disclosure on the expression of target proteins in cells; endogenous in cells; host or cells: human PBMCs (Milecell Biotechnologies)
T1 sequence (P48729 whole entry): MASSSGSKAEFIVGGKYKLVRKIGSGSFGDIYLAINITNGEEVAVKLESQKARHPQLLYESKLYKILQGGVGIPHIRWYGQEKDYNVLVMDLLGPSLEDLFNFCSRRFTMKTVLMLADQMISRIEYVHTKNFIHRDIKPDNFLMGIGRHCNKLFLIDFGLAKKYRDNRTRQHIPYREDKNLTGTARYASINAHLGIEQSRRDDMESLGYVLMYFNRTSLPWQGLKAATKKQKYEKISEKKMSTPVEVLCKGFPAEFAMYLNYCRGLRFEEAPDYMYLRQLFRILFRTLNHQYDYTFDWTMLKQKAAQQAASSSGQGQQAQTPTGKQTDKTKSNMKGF
T1 sequence (Q96SW2 whole entry): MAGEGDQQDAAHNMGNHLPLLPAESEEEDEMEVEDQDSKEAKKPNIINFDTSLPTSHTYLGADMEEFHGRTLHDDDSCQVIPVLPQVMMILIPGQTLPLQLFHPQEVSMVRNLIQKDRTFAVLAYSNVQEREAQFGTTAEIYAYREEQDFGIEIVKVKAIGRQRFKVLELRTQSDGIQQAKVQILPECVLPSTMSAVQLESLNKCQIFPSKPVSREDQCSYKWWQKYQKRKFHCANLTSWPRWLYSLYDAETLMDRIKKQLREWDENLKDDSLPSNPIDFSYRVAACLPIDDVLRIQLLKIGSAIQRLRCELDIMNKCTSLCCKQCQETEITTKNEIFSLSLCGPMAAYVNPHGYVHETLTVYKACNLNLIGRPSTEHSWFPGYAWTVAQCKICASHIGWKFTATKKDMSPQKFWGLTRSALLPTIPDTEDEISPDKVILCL
T1 sequence (Q16531 whole entry partner): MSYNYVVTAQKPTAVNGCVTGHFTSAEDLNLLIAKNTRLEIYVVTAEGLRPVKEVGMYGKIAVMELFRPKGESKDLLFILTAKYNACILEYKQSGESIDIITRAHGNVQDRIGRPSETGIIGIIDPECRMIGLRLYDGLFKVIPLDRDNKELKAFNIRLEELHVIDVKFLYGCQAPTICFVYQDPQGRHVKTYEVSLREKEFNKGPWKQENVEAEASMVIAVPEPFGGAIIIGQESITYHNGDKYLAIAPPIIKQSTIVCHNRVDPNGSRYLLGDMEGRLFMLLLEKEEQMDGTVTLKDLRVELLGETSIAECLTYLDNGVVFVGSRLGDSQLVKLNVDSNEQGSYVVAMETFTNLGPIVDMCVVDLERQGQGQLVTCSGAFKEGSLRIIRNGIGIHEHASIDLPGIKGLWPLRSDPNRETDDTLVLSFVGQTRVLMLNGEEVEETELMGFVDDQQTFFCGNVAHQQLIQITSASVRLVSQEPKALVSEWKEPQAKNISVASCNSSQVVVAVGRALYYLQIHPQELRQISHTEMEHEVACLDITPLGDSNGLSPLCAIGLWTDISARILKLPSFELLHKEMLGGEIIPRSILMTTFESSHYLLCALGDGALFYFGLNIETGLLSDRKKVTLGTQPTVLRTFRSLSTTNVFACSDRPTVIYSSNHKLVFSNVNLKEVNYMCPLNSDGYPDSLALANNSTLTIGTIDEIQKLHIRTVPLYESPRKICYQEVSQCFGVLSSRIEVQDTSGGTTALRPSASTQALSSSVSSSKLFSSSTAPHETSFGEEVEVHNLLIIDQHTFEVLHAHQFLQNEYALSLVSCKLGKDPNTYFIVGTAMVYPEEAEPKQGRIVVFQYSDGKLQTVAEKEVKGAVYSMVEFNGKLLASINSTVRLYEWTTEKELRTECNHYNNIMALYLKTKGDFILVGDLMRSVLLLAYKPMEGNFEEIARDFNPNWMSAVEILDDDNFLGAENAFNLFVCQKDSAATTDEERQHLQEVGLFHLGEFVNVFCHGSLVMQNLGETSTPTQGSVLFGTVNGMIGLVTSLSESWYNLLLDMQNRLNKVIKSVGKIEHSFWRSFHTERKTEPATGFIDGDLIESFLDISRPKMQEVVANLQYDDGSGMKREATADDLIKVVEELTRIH

[2] = target: T2, IKZF1 (Homo sapiens, UniProt Q13422+Q96SW2); assay: as above; assay type: cell-based; details: Western blot, 24 hours of compound treatment, compounds tested at 50 nM and 500 nM (concentration for the table not stated)
T2 construct: effects of the compounds of the present disclosure on the expression of target proteins in cells; endogenous in cells; host or cells: human PBMCs (Milecell Biotechnologies)
T2 sequence (Q13422 whole entry): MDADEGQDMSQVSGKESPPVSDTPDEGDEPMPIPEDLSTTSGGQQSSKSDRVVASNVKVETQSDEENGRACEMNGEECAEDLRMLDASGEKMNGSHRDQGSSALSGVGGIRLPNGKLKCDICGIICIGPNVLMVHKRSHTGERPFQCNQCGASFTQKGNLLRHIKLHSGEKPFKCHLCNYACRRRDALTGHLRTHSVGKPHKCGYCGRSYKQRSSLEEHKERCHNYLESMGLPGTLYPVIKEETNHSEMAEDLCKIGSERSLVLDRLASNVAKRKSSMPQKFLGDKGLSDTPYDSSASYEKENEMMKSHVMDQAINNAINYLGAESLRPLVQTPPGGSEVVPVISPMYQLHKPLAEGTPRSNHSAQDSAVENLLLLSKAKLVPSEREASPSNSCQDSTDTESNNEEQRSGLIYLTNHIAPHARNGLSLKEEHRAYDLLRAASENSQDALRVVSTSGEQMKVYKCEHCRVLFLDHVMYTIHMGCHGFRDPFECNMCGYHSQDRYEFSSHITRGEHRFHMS
T2 sequence (Q96SW2 whole entry): as the sequence (Q96SW2 whole entry) above
T2 sequence (Q16531 whole entry partner): as the sequence (Q16531 whole entry partner) above

[3] = target: T3, IKZF2 (Homo sapiens, UniProt Q96SW2+Q9UKS7); assay: as above; assay type: cell-based; details: Western blot, 24 hours of compound treatment, compounds tested at 50 nM and 500 nM (concentration for the table not stated)
T3 construct: effects of the compounds of the present disclosure on the expression of target proteins in cells; endogenous in cells; host or cells: human PBMCs (Milecell Biotechnologies)
T3 sequence (Q9UKS7 whole entry): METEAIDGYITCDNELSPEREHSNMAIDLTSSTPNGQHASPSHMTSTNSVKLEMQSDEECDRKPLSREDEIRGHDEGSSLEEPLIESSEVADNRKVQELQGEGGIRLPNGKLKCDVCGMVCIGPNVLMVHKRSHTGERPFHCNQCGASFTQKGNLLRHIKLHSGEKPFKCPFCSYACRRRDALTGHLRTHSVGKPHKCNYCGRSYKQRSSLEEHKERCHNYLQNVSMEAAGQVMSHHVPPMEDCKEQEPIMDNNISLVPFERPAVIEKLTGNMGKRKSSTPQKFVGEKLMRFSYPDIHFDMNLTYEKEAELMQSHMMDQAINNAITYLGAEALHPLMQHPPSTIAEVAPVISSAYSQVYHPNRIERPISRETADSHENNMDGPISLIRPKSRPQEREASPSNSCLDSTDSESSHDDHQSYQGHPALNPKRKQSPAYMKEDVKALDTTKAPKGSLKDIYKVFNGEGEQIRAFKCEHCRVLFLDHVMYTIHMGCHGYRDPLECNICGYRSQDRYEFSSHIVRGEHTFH
T3 sequence (Q96SW2 whole entry): as the sequence (Q96SW2 whole entry) above
T3 sequence (Q16531 whole entry partner): as the sequence (Q16531 whole entry partner) above

[4] = target: T4, IKZF3 (Homo sapiens, UniProt Q96SW2+Q9UKT9); assay: as above; assay type: cell-based; details: Western blot, 24 hours of compound treatment, compounds tested at 50 nM and 500 nM (concentration for the table not stated)
T4 construct: effects of the compounds of the present disclosure on the expression of target proteins in cells; endogenous in cells; host or cells: human PBMCs (Milecell Biotechnologies)
T4 sequence (Q9UKT9 whole entry): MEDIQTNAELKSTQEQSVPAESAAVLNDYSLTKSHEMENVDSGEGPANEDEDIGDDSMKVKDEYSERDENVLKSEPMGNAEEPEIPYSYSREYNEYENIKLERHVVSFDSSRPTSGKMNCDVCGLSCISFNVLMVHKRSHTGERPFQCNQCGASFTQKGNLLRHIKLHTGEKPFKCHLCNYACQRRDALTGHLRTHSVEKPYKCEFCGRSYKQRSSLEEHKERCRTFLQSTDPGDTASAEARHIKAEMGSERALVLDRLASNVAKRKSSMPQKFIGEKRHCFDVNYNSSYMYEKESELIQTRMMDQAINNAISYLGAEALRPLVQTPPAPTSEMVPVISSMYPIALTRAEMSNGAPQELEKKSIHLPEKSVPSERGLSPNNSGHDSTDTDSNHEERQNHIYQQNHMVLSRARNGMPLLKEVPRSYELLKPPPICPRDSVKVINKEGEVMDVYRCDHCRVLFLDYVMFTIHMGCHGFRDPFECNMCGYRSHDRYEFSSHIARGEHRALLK
T4 sequence (Q96SW2 whole entry): as the sequence (Q96SW2 whole entry) above
T4 sequence (Q16531 whole entry partner): as the sequence (Q16531 whole entry partner) above

[5] = target: T5, WEE1 (Homo sapiens, UniProt P30291+Q96SW2); assay: as above; assay type: cell-based; details: Western blot, 24 hours of compound treatment, compounds tested at 50 nM and 500 nM (concentration for the table not stated)
T5 construct: effects of the compounds of the present disclosure on the expression of target proteins in cells; endogenous in cells; host or cells: human PBMCs (Milecell Biotechnologies)
T5 sequence (P30291 whole entry): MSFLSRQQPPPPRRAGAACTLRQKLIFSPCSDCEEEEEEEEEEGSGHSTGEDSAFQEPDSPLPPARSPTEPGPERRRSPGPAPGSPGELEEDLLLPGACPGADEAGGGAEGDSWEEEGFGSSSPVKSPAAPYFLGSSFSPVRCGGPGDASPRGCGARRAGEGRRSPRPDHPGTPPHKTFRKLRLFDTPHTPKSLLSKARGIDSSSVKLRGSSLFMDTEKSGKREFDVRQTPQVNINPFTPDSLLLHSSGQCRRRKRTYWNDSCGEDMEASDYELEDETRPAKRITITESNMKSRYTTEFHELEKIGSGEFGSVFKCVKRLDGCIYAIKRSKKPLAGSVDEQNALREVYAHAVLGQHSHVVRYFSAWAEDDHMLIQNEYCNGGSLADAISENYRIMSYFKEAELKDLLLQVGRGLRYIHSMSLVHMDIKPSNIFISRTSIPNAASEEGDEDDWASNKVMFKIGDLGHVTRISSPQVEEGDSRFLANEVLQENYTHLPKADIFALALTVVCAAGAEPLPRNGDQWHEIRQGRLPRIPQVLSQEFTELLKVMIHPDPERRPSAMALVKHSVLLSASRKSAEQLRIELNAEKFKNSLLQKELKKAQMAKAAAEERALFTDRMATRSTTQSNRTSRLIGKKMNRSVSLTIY
T5 sequence (Q96SW2 whole entry): as the sequence (Q96SW2 whole entry) above
T5 sequence (Q16531 whole entry partner): as the sequence (Q16531 whole entry partner) above

[6] = system: GSPT1; assay: as above; assay type: cell-based, Human; details: Western blot, 24 hours of compound treatment, compounds tested at 50 nM and 500 nM (concentration for the table not stated)
[7] = target: T6, human Cereblon WT GST-tagged protein (Homo sapiens, UniProt Q96SW2); assay: CRBN-binding affinity, HTRF (CEREBLON BINDING kit); details: for inhibition at 0.5 µM: read-out: Inhibition Rate at 0.5 µM (%); for inhibition at 2 µM: read-out: Inhibition Rate at 2 µM (%)
T6 construct: purchased CISBIO 64BDCRBNPEH
T6 sequence (Q96SW2 whole entry): as the sequence (Q96SW2 whole entry) above

SMILES | inhibition at 0.5 µM [7] [%] | inhibition at 2 µM [7] [%] | CK1α substrate protein remaining % [1] | IKZF 1 substrate protein remaining % [2] | IKZF2 substrate protein remaining % [3] | IKZF3 substrate protein remaining % [4] | Wee1 substrate protein remaining % [5] | GSPT1 substrate protein remaining % [6]
O=C1CCC(N2Cc3c(CN4CCN(c5ncccc5Cl)CC4)cccc3C2=S)C(=O)N1 (stereo not drawn) [GT-08696, 3-(4-((4-(3-chloropyridin-2-yl)piperazin-1-yl)methyl)-1-thioxoisoindolin-2-yl)piperidine-2,6-dione] | 60 to 80 | 80 to 100 | B (80%< substrate protein remaining %≤ 100%) | B (80%< substrate protein remaining %≤ 100%) | B (80%< substrate protein remaining %≤ 100%) | B (80%< substrate protein remaining %≤ 100%) | A (0% ≤ substrate protein remaining % ≤ 80%) | B (80%< substrate protein remaining %≤ 100%)
O=C1CCC(N2Cc3c(CN4CCN(c5ncc(Cl)cc5Cl)CC4)cccc3C2=S)C(=O)N1 (stereo not drawn) [GT-08703, 3-(4-((4-(3,5-dichloropyridin-2-yl)piperazin-1-yl)methyl)-1-thioxoisoindolin-2-yl)piperidine-2,6-dione] | 53 to 60 | 60 to 80 | B (80%< substrate protein remaining %≤ 100%) | B (80%< substrate protein remaining %≤ 100%) | B (80%< substrate protein remaining %≤ 100%) | B (80%< substrate protein remaining %≤ 100%) | A (0% ≤ substrate protein remaining % ≤ 80%) | B (80%< substrate protein remaining %≤ 100%)
O=C1CCC(N2Cc3c(CN4CCN(c5nccc(I)c5F)CC4)cccc3C2=S)C(=O)N1 (stereo not drawn) [GT-08704, 3-(4-((4-(3-fluoro-4-iodopyridin-2-yl)piperazin-1-yl)methyl)-1-thioxoisoindolin-2-yl)piperidine-2,6-dione] | 40 to 53 | 80 to 100 | B (80%< substrate protein remaining %≤ 100%) | B (80%< substrate protein remaining %≤ 100%) | A (0% ≤ substrate protein remaining % ≤ 80%) | A (0% ≤ substrate protein remaining % ≤ 80%) | A (0% ≤ substrate protein remaining % ≤ 80%) | B (80%< substrate protein remaining %≤ 100%)
O=C1CCC(N2Cc3c(CN4CCN(c5ncc(C(F)(F)F)cc5Cl)CC4)cccc3C2=S)C(=O)N1 (stereo not drawn) [GT-08705, 3-(4-((4-(3-chloro-5-(trifluoromethyl)pyridin-2-yl)piperazin-1-yl)methyl)-1-thioxoisoindolin-2-yl)piperidine-2,6-dione] | 30 to 40 | 60 to 80 | B (80%< substrate protein remaining %≤ 100%) | B (80%< substrate protein remaining %≤ 100%) | B (80%< substrate protein remaining %≤ 100%) | B (80%< substrate protein remaining %≤ 100%) | A (0% ≤ substrate protein remaining % ≤ 80%) | B (80%< substrate protein remaining %≤ 100%)
O=C1CCC(N2Cc3c(CN4CCN(c5cccnc5)CC4)cccc3C2=S)C(=O)N1 (stereo not drawn) [GT-08706, 3-(4-((4-(pyridin-3-yl)piperazin-1-yl)methyl)-1-thioxoisoindolin-2-yl)piperidine-2,6-dione] | 53 to 60 | 80 to 100 | B (80%< substrate protein remaining %≤ 100%) | B (80%< substrate protein remaining %≤ 100%) | A (0% ≤ substrate protein remaining % ≤ 80%) | A (0% ≤ substrate protein remaining % ≤ 80%) | A (0% ≤ substrate protein remaining % ≤ 80%) | A (0% ≤ substrate protein remaining % ≤ 80%)

Continued, in another order:

inhibition at 0.5 µM [7] [%] | inhibition at 2 µM [7] [%] | SMILES | CK1α substrate protein remaining % [1] | IKZF 1 substrate protein remaining % [2] | IKZF2 substrate protein remaining % [3] | IKZF3 substrate protein remaining % [4] | Wee1 substrate protein remaining % [5] | GSPT1 substrate protein remaining % [6]
60 to 80 | 80 to 100 | O=C1CCC(N2Cc3c(CN4CCN(c5cccc(Cl)n5)CC4)cccc3C2=S)C(=O)N1 (stereo not drawn) [GT-08693, 3-(4-((4-(6-chloropyridin-2-yl)piperazin-1-yl)methyl)-1-thioxoisoindolin-2-yl)piperidine-2,6-dione] | B (80%< substrate protein remaining %≤ 100%) | B (80%< substrate protein remaining %≤ 100%) | B (80%< substrate protein remaining %≤ 100%) | B (80%< substrate protein remaining %≤ 100%) | A (0% ≤ substrate protein remaining % ≤ 80%) | B (80%< substrate protein remaining %≤ 100%)
40 to 53 | 60 to 80 | O=C1CCC(N2Cc3c(CN4CCN(c5ccc(Cl)cn5)CC4)cccc3C2=S)C(=O)N1 (stereo not drawn) [GT-08694, 3-(4-((4-(5-chloropyridin-2-yl)piperazin-1-yl)methyl)-1-thioxoisoindolin-2-yl)piperidine-2,6-dione] | B (80%< substrate protein remaining %≤ 100%) | B (80%< substrate protein remaining %≤ 100%) | B (80%< substrate protein remaining %≤ 100%) | B (80%< substrate protein remaining %≤ 100%) | A (0% ≤ substrate protein remaining % ≤ 80%) | A (0% ≤ substrate protein remaining % ≤ 80%)
60 to 80 | 80 to 100 | O=C1CCC(N2Cc3c(CN4CCN(c5ncccc5F)CC4)cccc3C2=S)C(=O)N1 (stereo not drawn) [GT-08697, 3-(4-((4-(3-fluoropyridin-2-yl)piperazin-1-yl)methyl)-1-thioxoisoindolin-2-yl)piperidine-2,6-dione] | B (80%< substrate protein remaining %≤ 100%) | B (80%< substrate protein remaining %≤ 100%) | B (80%< substrate protein remaining %≤ 100%) | B (80%< substrate protein remaining %≤ 100%) | A (0% ≤ substrate protein remaining % ≤ 80%) | B (80%< substrate protein remaining %≤ 100%)
60 to 80 | 80 to 100 | O=C1CCC(N2Cc3c(CN4CCN(c5cccc(F)n5)CC4)cccc3C2=S)C(=O)N1 (stereo not drawn) [GT-08698, 3-(4-((4-(6-fluoropyridin-2-yl)piperazin-1-yl)methyl)-1-thioxoisoindolin-2-yl)piperidine-2,6-dione] | B (80%< substrate protein remaining %≤ 100%) | B (80%< substrate protein remaining %≤ 100%) | B (80%< substrate protein remaining %≤ 100%) | B (80%< substrate protein remaining %≤ 100%) | A (0% ≤ substrate protein remaining % ≤ 80%) | A (0% ≤ substrate protein remaining % ≤ 80%)
53 to 60 | 80 to 100 | O=C1CCC(N2Cc3c(CN4CCN(c5ccc(F)cn5)CC4)cccc3C2=S)C(=O)N1 (stereo not drawn) [GT-08699, 3-(4-((4-(5-fluoropyridin-2-yl)piperazin-1-yl)methyl)-1-thioxoisoindolin-2-yl)piperidine-2,6-dione] | B (80%< substrate protein remaining %≤ 100%) | B (80%< substrate protein remaining %≤ 100%) | B (80%< substrate protein remaining %≤ 100%) | B (80%< substrate protein remaining %≤ 100%) | A (0% ≤ substrate protein remaining % ≤ 80%) | B (80%< substrate protein remaining %≤ 100%)
40 to 53 | 80 to 100 | O=C1CCC(N2Cc3c(CN4CCN(c5cccc(C(F)(F)F)n5)CC4)cccc3C2=S)C(=O)N1 (stereo not drawn) [GT-08701, 3-(1-thioxo-4-((4-(6-(trifluoromethyl)pyridin-2-yl)piperazin-1-yl)methyl)isoindolin-2-yl)piperidine-2,6-dione] | B (80%< substrate protein remaining %≤ 100%) | B (80%< substrate protein remaining %≤ 100%) | B (80%< substrate protein remaining %≤ 100%) | B (80%< substrate protein remaining %≤ 100%) | A (0% ≤ substrate protein remaining % ≤ 80%) | B (80%< substrate protein remaining %≤ 100%)
60 to 80 | 80 to 100 | O=C1CCC(N2Cc3c(CN4CCN(c5ccc(Cl)nc5)CC4)cccc3C2=S)C(=O)N1 (stereo not drawn) [GT-08723, 3-(4-((4-(6-chloropyridin-3-yl)piperazin-1-yl)methyl)-1-thioxoisoindolin-2-yl)piperidine-2,6-dione] | B (80%< substrate protein remaining %≤ 100%) | B (80%< substrate protein remaining %≤ 100%) | A (0% ≤ substrate protein remaining % ≤ 80%) | A (0% ≤ substrate protein remaining % ≤ 80%) | A (0% ≤ substrate protein remaining % ≤ 80%) | A (0% ≤ substrate protein remaining % ≤ 80%)
